Data reported in publication PMC6068142, “Biochemical and structural characterization of a mannose binding jacalin-related lectin with two-sugar binding sites from pineapple (Ananas comosus) stem” (Scientific Reports, 2018).
Values after ≈ are worked out from the molar mass of the structure shown. Read-outs that look alike come from different tables or passages of the source.

B1: Ananas comosus mannose jacalin-related lectin (AcmJRL) (natural protein, UniProt Q53J09 2-145, looked up)
chain: SGLVKLGLWGGNEGTLQDIDGHPTRLTKIVIRSAHAIDALQFDYVEDGKTFAAGQWGGNGGKSDTIEFQPGEYLIAIKGTTGALGAVTNLVRSLTFISNMRTYGPFGLEHGTPFSVPVASGRIVAFYGRFGSLVDAFGIYLMPY
notes: jacalin-like lectin from Ananas comosus (pineapple) stem, SwissProt entry Q53J09_ANACO; each monomer in the crystal runs from Ser2 to Tyr145; not glycosylated; Homodimer in solution by size-exclusion chromatography (0.15 mM); tetramer in the crystal (1.1 mM); Purification methods are in the Supplementary Materials and Methods; also called A. comosus lectin; jacalin-like lectin from A. comosus

Experiments:
[1] = molecular target: T1, AcmJRL (Ananas comosus, UniProt Q53J09); assay: isothermal titration calorimetry; format: binding; conditions: for Ka (M^-1): Tris-HCl 50 mM, 150 mM NaCl, pH 7.4, 25 °C, fit with fixed n = 2 equivalent sites
T1 construct: native, purified from pineapple stem (D-mannose-Agarose, Superdex 75); initiator Met absent; N-terminus SGLVGLG; residues 2-145; not glycosylated; homodimer in solution, tetramer in crystal
Source text: isothermal titration calorimetry on AcmJRL

[2] = molecular target: T2, AcmJRL (Ananas comosus, UniProt Q53J09); parameters: inhibition of lectin-induced rat erythrocyte hemagglutination, two-fold serial dilution, lowest saccharide concentration visibly decreasing agglutination; conditions: minimum concentration inhibiting hemagglutination of rat erythrocytes; inhibitor
T2 construct: native, purified from pineapple stem (D-mannose-Agarose, Superdex 75); initiator Met absent; N-terminus SGLVGLG; residues 2-145; not glycosylated; homodimer in solution, tetramer in crystal
T2 sequence (Q53J09 2-145): B1 chain
Procedure: Hemagglutinating activity was performed in microtiter plates with V-bottom wells, using the two-fold serial dilution method, starting with a concentration of 1 mg/mL (65 µM) lectin in phosphate-buffered saline containing 150 mM NaCl. Rabbit, sheep and rat erythrocytes were washed six times with 150 mM NaCl and resuspended at a final concentration of 3% (v/v) in 150 mM NaCl. Twenty-five µL of lectin solution were mixed with 25 µL of 3% erythrocytes, serially diluted and incubated at room temperature and 37 °C for 1 h. Hemagglutination activity was also assayed in the presence of 50 mM of the divalent ions Mg^2+, Mn^2+ Zn^2+ and Ca^2+. In this case, Tris-HCl 50 mM buffer at pH 7.2 containing 150 mM NaCl was used to avoid precipitation of phosphate compounds. The hemagglutination activity was given as a titer (the reciprocal of the highest two-fold dilution) or expressed as the minimum protein concentration (μg/mL), which produced visible hemagglutination and denoted as Hemagglutinating Unit (HU). Specific activity was defined as the HU per milligram of protein. The carbohydrate-binding specificity was determined by the inhibition of hemagglutination of rat erythrocytes, that were only the hemagglutinated ones, with starting concentrations of 100 mM for D-mannose, methyl-α-D-mannopyranoside and methyl-α-D-glucopyranoside, 50 mM for D-glucose and N-acetyl-D-glucosamine, 15 mM for Manα1,3Man and Manα1,3(Manα1,6)Man and 10 mM for Manα1,3Manα1,6(Manα1,6)Manα1,3. The different saccharides were serially diluted from the starting concentrations. After addition of 25 µL of A. comosus lectin (187.5 µg/mL) to all microplate wells, 25 µL of each saccharide were mixed separately in the first microtiter plate well followed by two-fold serial dilution and pre-incubated at room temperature for 1 h. Then 25 µL of 3% […] erythrocyte suspension were added to each well and the hemagglutination activity was evaluated after a further 1 h incubation period at room temperature and 37 °C. […] These are, e.g., the lectins from Phlebodium aureum rhizomes and Centrolobium microchaete seeds and heltuba[19],[47],[52].

[3] = molecular target: T1, AcmJRL; assay: inhibition of rat erythrocyte hemagglutination; format: cell-based; conditions: AcmJRL 62.5 µg/mL; two-fold serial dilution of sugar
[4] = molecular target: the molecule itself; assay: SEC; FPLC gel filtration on Superdex 75 of affinity-purified AcmJRL; 0.15 mM protein; estimated native mass ~30 kDa
[5] = molecular target: the molecule itself; assay: crystal structure; hanging drop vapor diffusion at 20 °C, protein at 17 mg/mL (1.1 mM); apo form (1.8 Å) and crystals soaked with D-mannose (2.75 Å) or methyl-α-D-mannopyranoside (1.9 Å)

Row | Molecule | Ka (M^-1) [1] | MIC [2] [µM] | also measured
1 | OC[C@H]1OC(O)[C@H](O)[C@@H](O)[C@@H]1O (stereo partly drawn) [D-Glucose] | 83 ± 3 | 3120 (≈ 562 µg/mL) | –
2 | OC[C@H]1OC(O)[C@@H](O)[C@@H](O)[C@@H]1O (stereo partly drawn) [D-Mannose] | – | 6250 (≈ 1130 µg/mL) | Kd ([1]; read-out: Ka (M^-1) (converted)): 5.62 mM
3 | CC(=O)N[C@H]1C(O)O[C@H](CO)[C@@H](O)[C@@H]1O (stereo partly shown) [GlcNAc] | 88 ± 1 | 3120 (≈ 690 µg/mL) | –
4 | OC[C@H]1O[C@H](OC[C@H]2O[C@H](OC[C@H]3OC(O)[C@@H](O)[C@@H](O[C@H]4O[C@H](CO)[C@@H](O)[C@H](O)[C@@H]4O)[C@@H]3O)[C@@H](O)[C@@H](O[C@H]3O[C@H](CO)[C@@H](O)[C@H](O)[C@@H]3O)[C@@H]2O)[C@@H](O)[C@@H](O)[C@@H]1O (stereo partly shown) [Mannopentaose] | 1694 ± 679 | 320 (≈ 265 µg/mL) | –
5 | OC[C@H]1O[C@H](OC[C@H]2OC(O)[C@@H](O)[C@@H](O[C@H]3O[C@H](CO)[C@@H](O)[C@H](O)[C@@H]3O)[C@@H]2O)[C@@H](O)[C@@H](O)[C@@H]1O (stereo partly shown) [Mannotriose] | 734 ± 117 | 470 (≈ 237 µg/mL) | –
6 | OC[C@H]1O[C@H](O[C@H]2[C@H](O)[C@@H](CO)OC(O)[C@H]2O)[C@@H](O)[C@@H](O)[C@@H]1O (stereo partly shown) [Manα1,3Man] | 421 ± 52 | 940 (≈ 322 µg/mL) | –
7 | CO[C@H]1O[C@H](CO)[C@@H](O)[C@H](O)[C@H]1O [methyl-α-D-glucopyranoside] | – | – | MIC [3]: 1560 µM (≈ 303 µg/mL)
8 | CO[C@H]1O[C@H](CO)[C@@H](O)[C@H](O)[C@@H]1O [methyl-α-D-mannopyranoside] | – | – | MIC [3]: 1560 µM (≈ 303 µg/mL)
9 | B1 | – | – | stoichiometry N [4]: 2; stoichiometry N [5]: 4
